“Also recorded” adds a separate entry of the source.
What was measured:
[1] = system: MRL/MpJ-Tnfrsf6^1pr-Mice; assay: Treatment of MRL/MpJ-Tnfrsf6 lpr mice (spontaneous SLE-like autoimmune syndrome); clinical observation, urine, autopsy; assay type: in vivo
Description: As the experimental animal model for studies of inhibition of disease development and the underlying mechanism(s), Applicants have employed MRL-Tnfrs6/1 pr mice, which spontaneously develop high levels of a wide range of antibodies and an SLE-like syndrome, including severe lymphoadrenopathy. The MRL-mouse strain is known to develop a severe autoimmune disease syndrome. In fact, it is known to develop the most severe disease state. Highs levels of circulating autoantibodies, immunocomplexes mediated glomerulonephritis, arthritis and vasculitis are observed. The mice also develop a heavy proliferation of lymph nodes.
(§1) The presence of circulating immunocomplexes is analyzed indirectly by continuous monitoring of the levels of protein, hemoglobin and erythrocytes in the urine of these animals, the quantities of which are directly related to the severity of the immunocomplex-mediated glomerulonephritis which develops. […] The effectiveness of a low dose of the substance and 100% reproducibility argue for a direct inhibition of the mechanism(s) underlying development of the disease.
The symptoms which these mice develop include deterioration of joints and consequent motor difficulties, kidney damage with resulting uremia (retention of fluid) and extreme lymphoadenopathy. This lymphoadenopathy arises from defects in the FAS antigen gene resulting from the lymphoproliferation (1 pr) mutation in MRL-mice. In the final stages of their disease these animals also develop dermal vasculitis. 100% of these mice develop these symptoms.
The degree of renal damage can be monitored on the basis of the level of protein, erythrocytes, hemoglobin and hyalin cylinders in the urine. Lymphocyte proliferation can be assessed from the growth of lymph nodes in the shoulders and groin, as well as along the aorta. Blood and tissue samples are collected for analysis and histopathological examination.
Animal Model: MRL/MpJ-Tnfrsf6^1pr-Mice
This strain develops spontaneous systemic lupus erythematosus-like autoimmune syndrome at or about 8 weeks of age. The syndrome is characterized by massive lymphadenopathy, immune complex glomerulonephritis, arthritis, high level of circulating antibodies, and vasculitis.
Compounds A and B were tested. Compound A was a reference compound and compound B was PFOA. Treatment was initiated at the age of 5 and 8 weeks, respectively. All animals received the respective compounds on a daily basis. A control group of mice without treatment was run in parallel. The following parameters were screened.
2. Investigation of urine sediment.
3. Monitoring of proteinuria.
Parameters followed during the study: 1) Clinical observation; 2) Urine: light microscopy, proteinuria. The following organs were sampled: thymus, lymph nodes, kidney, liver, and spleen. The organs were investigated by histopathology and immunohistopathology.

[2] = system: MRL/MpJ-Tnfrsf6^1pr-Mice; assay: Withdrawal study in treated MRL mice; assay type: in vivo
Protocol: as §1
(§2) By inhibiting antibody production, this substance also prevents the formation of immunocomplexes. These treated animals appear completely normal, without joint deterioration, lymphocyte proliferation, dermal vasculitis or immunocomplex-mediated glomerulonephritis.
In a separate study compound B was withdrawn from mice treated during 23-26 weeks. The mice were followed for up to 39-42 weeks.

[3] = system: horse erythrocytes; assay: Immunization with horse erythrocytes after treatment; antibody response; assay type: in vivo; settings: mice treated, then immunized with horse erythrocytes
Description: as §2

[4] = system: thymus and spleen; assay: Laboratory studies: thymus and spleen; set-up: species or system rodent; settings: in vivo
Description: PFOA belongs to a group of chemicals that induce peroxisome proliferation in the liver in rodent. […] These initial observations led to the inventors' discovery that PFOA could interfere with the immune system, and that PFOA could express immunosuppressive properties.

[5] = daily treatment started at age 5 or 8 weeks
[6] = mouse, in vivo, listed as perfluorooctanoic acid

O=C(O)C(F)(F)C(F)(F)C(F)(F)C(F)(F)C(F)(F)C(F)(F)C(F)(F)F [Compound B, Perfluorooctanoic acid]
anasarca ([1]; at autopsy): no anasarca was detected
survival rate ([1]; compared to control group and compound A treated mice): clear-cut increase of survival rate
body weight [1, 5]: No body weight gain
enlarged lymph nodes [1, 5]: No
clinical observation: activity / movement ([1]; mouse, in vivo): very active
fur ([1]; mouse, in vivo): normal fur
lymphadenopathy ([1]; mouse, in vivo): No lymphadenothapy was observed
ulcers ([1]; mouse, in vivo): No ulcers were observed
signs / symptoms of disease during treatment ([1]; mouse, in vivo, listed as compound B): did not develop any signs of disease
signs / symptoms of disease during treatment [1, 6]: none of these disease symptoms are observed
proteinuria ([1]; urine, daily treatment started at age 5 or 8 weeks): No
disease symptoms when treatment is terminated / substance withdrawn [2, 6]: the animals develop disease symptoms; also recorded: the mice begin to develop typical disease symptoms
time after withdrawal at which proteinuria was observed ([2]; treated during 23-26 weeks): 5 weeks
weight after withdrawal ([2]; treated during 23-26 weeks, followed up to 39-42 weeks): an increase in weight was observed
clinical symptoms after withdrawal ([2]; treated during 23-26 weeks, followed up to the 42 week point): no sign of symptoms were observed
antibody response to foreign antigens [3]: no antibody response
thymus and spleen [4]: a reduction of thymus and spleen was observed
